In ChEMBL document CHEMBL4819016, “2-Propargylamino-naphthoquinone derivatives as multipotent agents for the treatment of Alzheimer's disease” (Eur J Med Chem, 2021):
The source made the active and inactive calls. No cut-off for these calls is given here.

Experiments:
[1] = target: Amyloid-beta precursor protein (Homo sapiens) (UniProt P05067); experiment: Inhibition of HFIP-pretreated amyloid beta (1 to 42) (unknown origin) self aggregation at 50 uM measured every 10 mins for 72 hrs by Thioflavin T flourimetric assay relative to control
Sequence of Amyloid-beta precursor protein (Homo sapiens) (P05067 whole entry): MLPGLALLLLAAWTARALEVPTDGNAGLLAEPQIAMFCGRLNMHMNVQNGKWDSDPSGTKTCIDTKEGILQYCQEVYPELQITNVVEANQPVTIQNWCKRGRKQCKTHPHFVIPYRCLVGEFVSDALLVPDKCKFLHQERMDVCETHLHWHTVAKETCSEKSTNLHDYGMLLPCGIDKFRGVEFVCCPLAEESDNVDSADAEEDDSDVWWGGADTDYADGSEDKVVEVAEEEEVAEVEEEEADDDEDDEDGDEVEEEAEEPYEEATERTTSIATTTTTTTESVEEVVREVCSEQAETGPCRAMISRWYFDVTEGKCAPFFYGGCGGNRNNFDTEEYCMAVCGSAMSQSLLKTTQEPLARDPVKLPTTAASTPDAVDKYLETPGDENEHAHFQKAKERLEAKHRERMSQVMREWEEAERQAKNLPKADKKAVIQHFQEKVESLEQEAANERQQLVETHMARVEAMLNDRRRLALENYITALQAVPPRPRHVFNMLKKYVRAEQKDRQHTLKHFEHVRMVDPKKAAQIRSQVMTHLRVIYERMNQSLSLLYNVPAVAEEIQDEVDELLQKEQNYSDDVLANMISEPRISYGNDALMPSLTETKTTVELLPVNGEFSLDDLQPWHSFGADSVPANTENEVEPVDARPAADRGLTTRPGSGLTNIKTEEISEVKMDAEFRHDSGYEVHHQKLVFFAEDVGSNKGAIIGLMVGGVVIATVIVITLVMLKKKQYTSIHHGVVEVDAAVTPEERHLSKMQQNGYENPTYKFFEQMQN

[2] = Cytotoxicity against mouse SIM-A9 cells assessed as non-toxic concentration measured after 24 hrs by MTT assay; type: functional
Homo sapiens = species on record: Homo sapiens; experiment: Selectivity index, ratio of IC50 for human MAO-A to IC50 for human MAO-B using Kynuramine as substrate measured by plate reader method
SH-SY5Y = experiment: Cytotoxicity against human SH-SY5Y cells measured after 24 hrs by MTT assay; type: functional, cell-based
[3] = Permeability of compound at pH 7.4 measured after 6 hrs by PAMPA assay
[4] = target: T1, Amine oxidase [flavin-containing] B (Homo sapiens, UniProt P27338); experiment: Inhibition of human MAO-B preincubated for 5 mins followed by addition of Kynuramine substrate and measured after 30 mins by plate reader method
T1 sequence (P27338 whole entry): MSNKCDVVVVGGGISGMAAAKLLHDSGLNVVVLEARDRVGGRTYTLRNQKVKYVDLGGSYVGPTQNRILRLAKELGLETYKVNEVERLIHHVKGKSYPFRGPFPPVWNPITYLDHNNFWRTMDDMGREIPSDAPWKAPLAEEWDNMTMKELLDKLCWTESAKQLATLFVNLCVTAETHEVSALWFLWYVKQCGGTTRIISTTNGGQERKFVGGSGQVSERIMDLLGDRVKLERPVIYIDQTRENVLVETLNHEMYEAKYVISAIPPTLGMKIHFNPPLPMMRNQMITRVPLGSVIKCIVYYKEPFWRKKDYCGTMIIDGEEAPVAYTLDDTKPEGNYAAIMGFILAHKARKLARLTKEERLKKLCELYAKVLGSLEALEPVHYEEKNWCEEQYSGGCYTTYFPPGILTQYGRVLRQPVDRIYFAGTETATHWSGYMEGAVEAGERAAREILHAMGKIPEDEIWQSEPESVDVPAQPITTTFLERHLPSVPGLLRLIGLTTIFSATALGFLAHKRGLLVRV

[5] = Cytotoxicity against mouse SIM-A9 cells measured after 24 hrs by MTT assay; type: functional, cell-based; conditions: SIM-A9, 24 h
[6] = target: T2, Amine oxidase [flavin-containing] A (Homo sapiens, UniProt P21397); experiment: Inhibition of human MAO-A preincubated for 5 mins followed by addition of Kynuramine substrate and measured after 30 mins by plate reader method
T2 sequence (P21397 whole entry): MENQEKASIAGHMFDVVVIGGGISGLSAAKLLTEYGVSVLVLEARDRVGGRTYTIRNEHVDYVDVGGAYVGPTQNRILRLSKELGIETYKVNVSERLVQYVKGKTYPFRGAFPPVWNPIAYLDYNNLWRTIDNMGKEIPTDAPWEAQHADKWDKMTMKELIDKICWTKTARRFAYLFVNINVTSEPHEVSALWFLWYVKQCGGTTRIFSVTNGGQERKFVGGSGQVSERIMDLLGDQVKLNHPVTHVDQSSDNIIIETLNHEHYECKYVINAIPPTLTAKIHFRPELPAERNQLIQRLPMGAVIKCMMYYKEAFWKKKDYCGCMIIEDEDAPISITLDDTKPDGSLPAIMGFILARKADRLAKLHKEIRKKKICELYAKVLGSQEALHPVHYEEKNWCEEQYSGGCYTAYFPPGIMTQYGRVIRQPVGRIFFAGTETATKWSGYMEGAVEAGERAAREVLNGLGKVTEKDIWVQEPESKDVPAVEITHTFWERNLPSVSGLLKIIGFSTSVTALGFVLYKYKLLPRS

[7] = target: T1, Amine oxidase [flavin-containing] B; experiment: Non-covalent inhibition of human MAO-B using Kynuramine as substrate measured upto 60 mins by plate reader method; conditions: 1 h
[8] = target: T1, Amine oxidase [flavin-containing] B; experiment: Mixed inhibition of human MAO-B assessed as increase of Km with decrease of Vmax using Kynuramine at 0.3 to 2 uM measured after 30 mins by plate reader method; conditions: 0.5 h, dose 0.3-2 µM
[9] = target: T1, Amine oxidase [flavin-containing] B; experiment: Reversible inhibition of human MAO-B using Kynuramine as substrate at pH 7 measured after 30 mins by plate reader method; conditions: pH 7, 0.5 h
[10] = Anti-inflammatory activity in mouse SIM-A9 cells assessed as decrease in LPS-induced IL-6 production at 1 ug/ml preincubated for 1 hr followed by stimulation with LPS and measured after 23 hrs by ELISA assay; type: functional; design: scale not given: the % may be the effect or the level left; conditions: dose 1 µg/ml; time 24 hrs
[11] = Anti-inflammatory activity in mouse SIM-A9 cells assessed as decrease in LPS-induced TNF-alpha production at 1 ug/ml preincubated for 1 hr followed by stimulation with LPS and measured after 23 hrs by ELISA assay; type: functional; design: scale not given: the % may be the effect or the level left; conditions: dose 1 µg/ml; time 24 hrs
[12] = target: T1, Amine oxidase [flavin-containing] B; experiment: Competitive inhibition of human MAO-B assessed as increase of Km with constant Vmax using Kynuramine at 0.05 to 0.2 uM measured after 30 mins by plate reader method; conditions: 0.5 h, dose 0.05-0.2 µM
[13] = Radical scavenging activity of compound measured after 15 mins by ABTS radical scavenging activity in relative to clioquinol; type: functional
[14] = Metal chelating activity assessed as compound-Cu2+ complex formation measured by EPR-spectroscopy; type: functional
[15] = target: T1, Amine oxidase [flavin-containing] B; experiment: Mixed inhibition of human MAO-B using Kynuramine as substrate measured upto 60 mins by plate reader method; conditions: 1 h
[16] = Toxicity in human SH-SY5Y cells assessed by changes in mitochondrial membrane potential at 0.1 to 100 uM measured after 24 hrs by JC-1 probe based fluorescence reader assay; type: cell-based; conditions: dose 0.1-100 µM
[17] = Radical scavenging activity of compound in presence of Cu+2 measured after 15 mins by ABTS radical scavenging activity in relative to clioquinol; type: functional
[18] = Toxicity in human SH-SY5Y cells assessed as change in respiratory states by measuring LEAK at 0.1 to 100 uM measured after 24 hrs by respirometer; type: cell-based; conditions: dose 0.1-100 µM
[19] = Toxicity in human SH-SY5Y cells assessed as change in respiratory states by measuring ETS at 0.1 to 100 uM measured after 24 hrs by respirometer; type: cell-based; conditions: dose 0.1-100 µM
[20] = Anti-inflammatory activity in mouse SIM-A9 cells assessed as decrease in LPS-induced TNF-alpha production at 4 uM preincubated for 1 hr followed by stimulation with LPS and measured after 23 hrs by ELISA assay; type: functional; design: scale not given: the % may be the effect or the level left; conditions: time 24 hrs
[21] = Anti-inflammatory activity in mouse SIM-A9 cells assessed as decrease in LPS-induced IL-6 production at 8 uM preincubated for 1 hr followed by stimulation with LPS and measured after 23 hrs by ELISA assay; type: functional; design: scale not given: the % may be the effect or the level left; conditions: time 24 hrs
[22] = Anti-inflammatory activity in mouse SIM-A9 cells assessed as decrease in LPS-induced TNF-alpha production at 2 uM preincubated for 1 hr followed by stimulation with LPS and measured after 23 hrs by ELISA assay; type: functional; design: scale not given: the % may be the effect or the level left; conditions: time 24 hrs
[23] = Toxicity in human SH-SY5Y cells assessed by intracellular dehydrogenase activity at 100 uM measured after 24 hrs by WST-1 assay; type: cell-based; conditions: read-out: Activity
[24] = Anti-inflammatory activity in mouse SIM-A9 cells assessed as decrease in LPS-induced TNF-alpha production at 8 uM preincubated for 1 hr followed by stimulation with LPS and measured after 23 hrs by ELISA assay; type: functional; design: scale not given: the % may be the effect or the level left; conditions: time 24 hrs
[25] = Toxicity in human SH-SY5Y cells assessed as change in respiratory states by measuring ROUTINE at 0.1 to 100 uM measured after 24 hrs by respirometer; type: cell-based; conditions: dose 0.1-100 µM
[26] = Anti-inflammatory activity in mouse SIM-A9 cells assessed as decrease in LPS-induced IL-6 production at 4 uM preincubated for 1 hr followed by stimulation with LPS and measured after 23 hrs by ELISA assay; type: functional; design: scale not given: the % may be the effect or the level left; conditions: time 24 hrs
[27] = Toxicity in human SH-SY5Y cells assessed as change in respiratory states by measuring ROX at 0.1 to 100 uM measured after 24 hrs by respirometer; type: cell-based; conditions: dose 0.1-100 µM
[28] = Toxicity in human SH-SY5Y cells assessed by intracellular dehydrogenase activity at 10 uM measured after 24 hrs by WST-1 assay; type: cell-based; conditions: read-out: Activity
[29] = Anti-inflammatory activity in mouse SIM-A9 cells assessed as decrease in LPS-induced IL-6 production at 2 uM preincubated for 1 hr followed by stimulation with LPS and measured after 23 hrs by ELISA assay; type: functional; design: scale not given: the % may be the effect or the level left; conditions: time 24 hrs
[30] = Toxicity in human SH-SY5Y cells assessed by glutathione depletion at 10 uM measured after 24 hrs by monochlorobimane based plate reader assay; type: cell-based

C#CCN(C)C1=CC(=O)c2ccccc2C1=O
inhibition [1]: 67.4% | MNTD [2]: 8 µM | Selectivity Index (Homo sapiens): 0.77 | IC50 (SH-SY5Y): 22 µM | Papp at 6 h [3]: 18.5 ×10⁻⁶ cm/s | IC50 [4]: 8.62 µM | IC50 [5]: 36.1 µM | IC50 [6]: 6.64 µM

C#CCNC1=CC(=O)c2cccc(OC)c2C1=O
inhibition [1]: 15.5% | MNTD [2]: 8 µM | IC50 (SH-SY5Y): > 32 µM | Papp at 6 h [3]: 18.8 ×10⁻⁶ cm/s | IC50 [5]: 116 µM

C#CCNC1=CC(=O)c2ccccc2C1=O
inhibition [1]: 24% | MNTD [2]: 4 µM | inhibition (INH) [7]: Active | inhibition (INH) [8]: Active | Selectivity Index (Homo sapiens): 36 | IC50 (SH-SY5Y): > 64 µM | Papp at 6 h [3]: 20.8 ×10⁻⁶ cm/s | IC50 [4]: 0.27 µM | inhibition (INH) [9]: Active | IC50 [5]: 34.6 µM | IC50 [6]: 9.81 µM

C[C@@H]1C[C@H]2[C@@H]3CCC4=CC(=O)C=C[C@]4(C)[C@@]3(F)[C@@H](O)C[C@]2(C)[C@@]1(O)C(=O)CO [DEXAMETHASONE]
Activity [10]: 40% | Activity [11]: 60%

C#CCNC1=CC(=O)c2c(O)ccc(O)c2C1=O
inhibition [1]: 21.7% | MNTD [2]: 0.4 µM | IC50 (SH-SY5Y): 15 µM | Papp at 6 h [3]: 43.3 ×10⁻⁶ cm/s | IC50 [5]: 5.3 µM

C#CCNC1=C(Cl)C(=O)c2ccccc2C1=O
inhibition (INH) [12]: Active | inhibition [1]: 18.4% | MNTD [2]: 4 µM | Selectivity Index (Homo sapiens): 155 | Activity [13]: Active | IC50 (SH-SY5Y): 4.6 µM | Activity [14]: Active | Papp at 6 h [3]: 29.4 ×10⁻⁶ cm/s | IC50 [4]: 0.05 µM | inhibition (INH) [15]: Active | IC50 [5]: 10.4 µM | IC50 [6]: 7.76 µM

C#CCNC1=CC(=O)c2cccc(OCc3ccccc3)c2C1=O
Activity [16]: Non-Toxic | Activity [17]: 10% | Activity [18]: Non-Toxic | inhibition [1]: 17.5% | Activity [19]: Non-Toxic | Activity [20]: 74% | Activity [21]: 49% | Activity [22]: 76% | viability at 24 h, 100 µM [23]: 88% | MNTD [2]: 8 µM | Activity [24]: 46% | Activity [25]: Non-Toxic | Activity [26]: 74% | Activity [13]: 15% | IC50 (SH-SY5Y): > 64 µM | Activity [27]: Non-Toxic | Activity [14]: Active | Papp at 6 h [3]: 25.5 ×10⁻⁶ cm/s | viability at 24 h, 10 µM [28]: 89% | Activity [29]: 95% | IC50 [5]: > 32 µM | Activity [30]: 89%

CNC(=C[N+](=O)[O-])NCCSCc1ccc(CN(C)C)o1 [RANITIDINE]
Papp at 6 h [3]: 0.04 ×10⁻⁶ cm/s

C#CCNC1=CC(=O)c2cccc(OCC)c2C1=O
inhibition [1]: 11.2% | MNTD [2]: 32 µM | IC50 (SH-SY5Y): > 64 µM | Papp at 6 h [3]: 18.5 ×10⁻⁶ cm/s | IC50 [5]: > 64 µM

C#CCN(C)C1=C(Cl)C(=O)c2ccccc2C1=O
Activity [17]: 5% | inhibition [1]: 40.5% | MNTD [2]: 2 µM | Selectivity Index (Homo sapiens): 71 | Activity [13]: Active | IC50 (SH-SY5Y): 3.3 µM | Activity [14]: Active | Papp at 6 h [3]: 14 ×10⁻⁶ cm/s | IC50 [4]: 0.14 µM | IC50 [5]: 7.3 µM | IC50 [6]: 10 µM

C[C@H]1c2cccc(O)c2C(=O)C2=C(O)[C@]3(O)C(=O)C(C(N)=O)=C(O)[C@@H](N(C)C)[C@@H]3[C@@H](O)[C@@H]21
inhibition [1]: 93.1%
